Results on 15 compounds are retold here after US8889704B2 (Array BioPharma Inc., priority 2011, dated 2014).

Type in all cases: biochemical
The target of experiment [1] is PIM-1 (Homo sapiens, UniProt P11309). Kind of experiment: Enzyme PIM-1 Assay ([33P]ATP incorporation into PIM2tide, filter plate). As to conditions: averaged IC50; 35 μM ATP, 7.5 μM PIM2tide, 0.25 nM PIM-1, 60 min at 22° C. The procedure, abridged:
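Radiometric assay: 0.25 nM PIM-1 phosphorylates 7.5 μM PIM2tide with 35 μM [γ-33P]ATP in 20 mM MOPS pH 7.4, 10 mM MgCl2, 1 mM DTT, 0.005% Tween-20, 60 min at 22 °C. Product captured on P81 filters, scintillation counted; 10-point 3-fold curve from 10 μM top, 2% DMSO, IC50 by 4-parameter logistic fit of POC.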

The target of experiment [2] is T1, GST-tagged recombinant full-length human Pim-2 (Homo sapiens, UniProt Q9P1W9).
T1 construct: GST-tagged recombinant full-length human Pim-2; GST
T1 sequence (Q9P1W9 whole entry): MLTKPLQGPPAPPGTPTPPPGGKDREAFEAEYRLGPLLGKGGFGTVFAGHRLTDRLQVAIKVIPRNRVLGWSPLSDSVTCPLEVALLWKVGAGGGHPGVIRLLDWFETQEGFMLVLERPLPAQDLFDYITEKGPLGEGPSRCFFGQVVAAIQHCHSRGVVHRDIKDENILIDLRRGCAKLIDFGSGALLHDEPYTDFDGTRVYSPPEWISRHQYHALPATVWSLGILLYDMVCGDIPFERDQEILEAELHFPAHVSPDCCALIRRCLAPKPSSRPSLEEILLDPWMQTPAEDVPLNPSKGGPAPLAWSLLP
The experiment in a line: PIM-2 Assay (as Example A). Particulars: averaged IC50; 4 μM ATP, 1.0 μM PIM2tide, 1.5 nM Pim-2. In outline:
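Radiometric filter-binding assay: GST-tagged full-length human Pim-2 (1.5 nM) phosphorylates 1.0 μM PIM2tide with 4 μM [γ-33P]ATP for 60 min at 22 °C in pH 7.4 MOPS buffer, 2% DMSO. 10-point 3-fold dilutions from 10 μM top dose; IC50 from 4-parameter fit of percent of control.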

Experiment [3] addresses recombinant rat PIM-3 (Rattus norvegicus, UniProt O70444). The experiment in a line: PIM-3 Assay (as Example A). Particulars: averaged IC50; 30 μM ATP, 3.75 μM PIM2tide, 0.5 nM PIM-3. In outline: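 Recombinant rat PIM-3 (0.5 nM) with 3.75 μM PIM2tide and 30 μM [γ-33P]ATP in MOPS pH 7.4 buffer, 60 min at 22 °C; labelled peptide captured on phosphocellulose filters and counted by scintillation. 10-point curve (top dose 10 μM, 2% DMSO); IC50 from 4-parameter fit of percent of control.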

Where a name gives a salt, the structure may show the parent alone.

Sequence of PIM-1 (P11309 whole entry, species assumed): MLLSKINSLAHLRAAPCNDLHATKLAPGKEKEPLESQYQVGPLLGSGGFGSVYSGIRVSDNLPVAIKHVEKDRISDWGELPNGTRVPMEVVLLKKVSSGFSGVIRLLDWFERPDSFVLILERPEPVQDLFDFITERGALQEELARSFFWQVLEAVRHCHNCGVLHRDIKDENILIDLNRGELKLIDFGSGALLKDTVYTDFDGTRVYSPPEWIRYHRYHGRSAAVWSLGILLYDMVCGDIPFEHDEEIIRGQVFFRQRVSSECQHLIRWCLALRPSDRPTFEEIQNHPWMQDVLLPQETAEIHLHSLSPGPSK

As for `Cc1cnn(-c2ccc3ccc(-c4nnc5ccc([C@@H](N6CC[C@H](N)C6)C(F)(F)F)cn45)nc3c2C)c1` [Example 190, (S)-1-((R)-2,2,2-trifluoro-1-(3-(8-methyl-7-(4-methyl-1H-pyrazol-1-yl)quinolin-2-yl)-[1,2,4]triazolo[4,3-a]pyridin-6-yl)ethyl)pyrrolidin-3-amine dihydrochloride], the IC50 in experiment [1] was 1.03 nM; in experiment [2], over 100 nM; in experiment [3] it was 1 nM.

For the compound `Cc1c(-c2cnn(C)c2)ccc2ccc(-c3nnc4ccc([C@@H](N5CC[C@H](N)C5)C(F)(F)F)cn34)nc12` [Example 191, (S)-1-((R)-2,2,2-trifluoro-1-(3-(8-methyl-7-(1-methyl-1H-pyrazol-4-yl)quinolin-2-yl)-[1,2,4]triazolo[4,3-a]pyridin-6-yl)ethyl)pyrrolidin-3-amine dihydrochloride], the IC50 in experiment [1] was 0.2 nM; in experiment [2] it was 74 nM; in experiment [3], 0.2 nM.

For `CC1(COc2cccc3ccc(-c4nnc5ccc([C@@H](N6CC[C@H](N)C6)C(F)(F)F)cn45)nc23)COC1` [Example 192, (S)-1-((R)-2,2,2-trifluoro-1-(3-(8-(3-methyloxetan-3-yl)methoxy)quinolin-2-yl)-[1,2,4]triazolo[4,3-a]pyridin-6-yl)ethyl)pyrrolidin-3-amine diformate], the figures for the IC50 in experiment [1], in experiment [2] and in experiment [3] were 0.17 nM, 80 nM and 0.5 nM, respectively.

As for `CC(C)Oc1cccc2ccc(-c3nnc4ccc([C@@H](N5CCC(N)(CO)C5)C(F)(F)F)cn34)nc12` (stereo partly drawn) [Example 197, (3-amino-1-((R)-2,2,2-trifluoro-1-(3-(8-isopropoxyquinolin-2-yl)-[1,2,4]triazolo[4,3-a]pyridin-6-yl)ethyl)pyrrolidin-3-yl)methanol dihydrochloride], the concentration for half-maximal inhibition (IC50) in experiment [1] came to 0.3 nM; in experiment [2] it was 150 nM; in experiment [3] it was 0.9 nM.

In the case of `CC1(COc2ccc3ccc(-c4nnc5ccc([C@@H](N6CC[C@H](N)C6)C(F)(F)F)cn45)nc3c2)COC1` [Example 198, (S)-1-((R)-2,2,2-trifluoro-1-(3-(7-((3-methyloxetan-3-yl)methoxy)quinolin-2-yl)-[1,2,4]triazolo[4,3-a]pyridin-6-yl)ethyl)pyrrolidin-3-amine diformate], the IC50 was 0.14 nM in experiment [1], 123 nM in experiment [2] and 0.2 nM in experiment [3].

`Cc1cc(-c2cc3nc(-c4nnc5ccc([C@@H](N6CC[C@H](N)C6)C(F)(F)F)cn45)ccc3cc2F)n(C)n1` [Example 204, (3 S)-1-((1R)-1-(3-(7-(1,3-dimethyl-1H-pyrazol-5-yl)-6-fluoroquinolin-2-yl)-[1,2,4]triazolo[4,3-a]pyridin-6-yl)-2,2,2-trifluoroethyl)pyrrolidin-3-amine dihydrochloride]: the IC50 in experiment [1] is 0.48 nM; in experiment [2], over 1000 nM; in experiment [3], 3 nM.

For `Cc1nn(C)cc1-c1cc2nc(-c3nnc4ccc([C@@H](N5CC[C@H](N)C5)C(F)(F)F)cn34)ccc2cc1F` [Example 205, (3 S)-1-((1R)-1-(3-(7-(1,3-dimethyl-1H-pyrazol-4-yl)-6-fluoroquinolin-2-yl)-[1,2,4]triazolo[4,3-a]pyridin-6-yl)-2,2,2-trifluoroethyl)pyrrolidin-3-amine dihydrochloride], the results for the IC50 in experiment [1], in experiment [2] and in experiment [3] were 0.14 nM, 244 nM and 0.2 nM, respectively.

For `Cc1c(-c2cc3nc(-c4nnc5ccc([C@@H](N6CC[C@H](N)C6)C(F)(F)F)cn45)ccc3cc2F)cnn1C` [Example 206, (3 S)-1-((1R)-1-(3-(7-(1,5-dimethyl-1H-pyrazol-4-yl)-6-fluoroquinolin-2-yl)-[1,2,4]triazolo[4,3-a]pyridin-6-yl)-2,2,2-trifluoroethyl)pyrrolidin-3-amine dihydrochloride], the IC50 in experiment [1] is 0.09 nM; in experiment [2], 55 nM; in experiment [3], 0.1 nM.

With `N[C@H]1CCN([C@H](c2ccc3nnc(-c4ccc5cccc(O)c5n4)n3c2)C(F)(F)F)C1` [Example 208, 2-(6-((R)-1-((S)-3-aminopyrrolidin-1-yl)-2,2,2-trifluoroethyl)-[1,2,4]triazolo[4,3-a]pyridin-3-yl)quinolin-8-ol dihydrochloride], the results for the IC50 in experiment [1], in experiment [2] and in experiment [3] were 0.41 nM, over 1000 nM and 2.5 nM, respectively.

Take `Cc1c(C(=O)NC(C)C)ccc2ccc(-c3nnc4ccc([C@@H](N5CC[C@H](N)C5)C(F)(F)F)cn34)nc12` [Example 209, 2-(6-((R)-1-((S)-3-aminopyrrolidin-1-yl)-2,2,2-trifluoroethyl)-[1,2,4]triazolo[4,3-a]pyridin-3-yl)-N-isopropyl-8-methylquinoline-7-carboxamide]: the half-inhibitory concentration (IC50) stood at 0.55 nM in experiment [1], 176 nM in experiment [2] and 0.6 nM in experiment [3].

Regarding `COc1cc2nc(-c3nnc4ccc([C@@H](N5C[C@@H](N)[C@@H](F)C5)C(F)(F)F)cn34)ccc2cc1F` [Example 210, (3R,4S)-4-fluoro-1-((R)-2,2,2-trifluoro-1-(3-(6-fluoro-7-methoxyquinolin-2-yl)-[1,2,4]triazolo[4,3-a]pyridin-6-yl)ethyl)pyrrolidin-3-amine dihydrochloride], the IC50 in experiment [1] is over 100 nM; in experiment [2], over 1000 nM; in experiment [3], over 100 nM.

With `COc1cc2nc(-c3nnc4ccc([C@@H](N5C[C@@H](N)[C@H](F)C5)C(F)(F)F)cn34)ccc2cc1F` [Example 211, (3R,4R)-4-fluoro-1-((R)-2,2,2-trifluoro-1-(3-(6-fluoro-7-methoxyquinolin-2-yl)-[1,2,4]triazolo[4,3-a]pyridin-6-yl)ethyl)pyrrolidin-3-amine dihydrochloride], the IC50 in experiment [1] was found to be 0.52 nM; in experiment [2], 645 nM; in experiment [3], 4 nM.

For the compound `CO[C@@H](C)COc1cccc2ccc(-c3nnc4ccc([C@@H](N5CC[C@H](N)C5)C(F)(F)F)cn34)nc12` [Example 212, (S)-1-((R)-2,2,2-trifluoro-1-(3-(8-((S)-2-methoxypropoxy)quinolin-2-yl)-[1,2,4]triazolo[4,3-a]pyridin-6-yl)ethyl)pyrrolidin-3-amine dihydrochloride], the IC50 turned out to be 0.14 nM in experiment [1], 72 nM in experiment [2] and 0.3 nM in experiment [3].

On to `Cc1cc(-c2ccc3ccc(-c4nnc5ccc([C@@H](N6CC[C@H](N)C6)C(F)(F)F)cn45)nc3c2C)n(C)n1` [Example 213, (3S)-1-((1R)-1-(3-(7-(1,3-dimethyl-1H-pyrazol-5-yl)-8-methylquinolin-2-yl)-[1,2,4]triazolo[4,3-a]pyridin-6-yl)-2,2,2-trifluoroethyl)pyrrolidin-3-amine], for which the IC50 is 0.64 nM in experiment [1], over 1000 nM in experiment [2] and 8 nM in experiment [3].

Take `Cc1c(-c2cnn(C)c2C)ccc2ccc(-c3nnc4ccc([C@@H](N5CC[C@H](N)C5)C(F)(F)F)cn34)nc12` [Example 214, (3S)-1-((1R)-1-(3-(7-(1,5-dimethyl-1H-pyrazol-4-yl)-8-methylquinolin-2-yl)-[1,2,4]triazolo[4,3-a]pyridin-6-yl)-2,2,2-trifluoroethyl)pyrrolidin-3-amine dihydrochloride]: the IC50 was 0.38 nM in experiment [1], 138 nM in experiment [2] and 0.4 nM in experiment [3].
